Experimental data reported in patent US11596639B2, “Substituted indole Mcl-1 inhibitors” (Vanderbilt University, priority 2016, dated 2023).
pKi: −log10 of the molar value.

What was measured:
Mcl-1 = Mcl-1 (Homo sapiens (Human), UniProt Q07820); assay: TR-FRET binding assay, FITC-Bak peptide and MBP-tagged Mcl-1; details: read-out: Ki for Inhibition of Mcl-1 by TR-FRET assay
Method: Compounds are diluted in DMSO in a 16-point, semilog serial dilution scheme. […] The plate was mixed and incubated for 3 hours at room temperature. […] TR-FRET signal is plotted and IC50 and Ki values are calculated in the same manner as the fluorescence polarization anisotropy based competition assays.

[1] = tested on: H929 human cancer cell lines; assay: Cellular viability / proliferation (Cell TiterGlo, 72 h); format: cell-based; details: Homo sapiens, NCI-H929, 72 h, read-out: GI50 on cellular proliferation of H929 human cancer cell lines, H929 cells, 72 h, Cell TiterGlo, 10% FBS
Procedure, shortened: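 Top dose 50 μM, serially diluted 2-fold, applied one day after seeding (1,000 cells/well, 10% FBS), DMSO below 1%.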

Chain of Mcl-1 (Q07820 172-327): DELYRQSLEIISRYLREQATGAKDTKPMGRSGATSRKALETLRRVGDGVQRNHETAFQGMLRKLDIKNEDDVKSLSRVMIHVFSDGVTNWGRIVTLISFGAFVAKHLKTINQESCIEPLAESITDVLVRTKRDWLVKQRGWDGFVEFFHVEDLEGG

Row | Structure (SMILES) | pKi (Mcl-1) | GI50 [1] [µM]
1 | Cc1cc(N2C[C@@H](C)n3c(c(CCCOc4cc(C)c(Cl)c(C)c4)c4ccc(Cl)c(-c5c(C)nn(C)c5C)c43)C2=O)c2c(c1)cc(C(=O)O)n2CC(=O)N(C)C [Example 596, (R)-7-(7-chloro-10-(3-(4-chloro-3,5-dimethylphenoxy)propyl)-4-methyl-1-oxo-6-(1,3,5-trimethyl-1H-pyrazol-4-yl)-3,4-dihydropyrazino[1,2-a]indol-2(1H)-yl)-1-(2-(dimethylamino)-2-oxoethyl)-5-methyl-1H-indole-2-carboxylic acid] | > 9.70 | 1.3
2 | COCCn1cnc(-c2ccc3c(c2)c(N2C[C@@H](C)n4c(c(CCCOc5cc(C)c(Cl)c(C)c5)c5ccc(Cl)c(-c6c(C)nc(CN7CCN(C)C(=O)C7)nc6C)c54)C2=O)cn3CCN2CCOCC2)n1 [Example 722, (R)-7-Chloro-10-(3-(4-chloro-3,5-dimethylphenoxy)propyl)-6-(4,6-dimethyl-2-((4-methyl-3-oxopiperazin-1-yl)methyl)pyrimidin-5-yl)-2-(5-(1-(2-methoxyethyl)-1H-1,2,4-triazol-3-yl)-1-(2-morpholinoethyl)-1H-indol-3-yl)-4-methyl-3,4-dihydropyrazino[1,2-a]indol-1(2H)-one] | 8.51 | < 0.2
3 | COCc1cccn2nc(-c3ccc4c(c3)c(N3C[C@@H](C)n5c(c(CCCOc6cc(C)c(Cl)c(C)c6)c6ccc(Cl)c(-c7c(C)nn(C)c7C)c65)C3=O)cn4C)nc12 [Example 695, (R)-7-Chloro-10-(3-(4-chloro-3,5-dimethylphenoxy)propyl)-2-(5-(8-(methoxymethyl)-[1,2,4]triazolo[1,5-a]pyridin-2-yl)-1-methyl-1H-indol-3-yl)-4-methyl-6-(1,3,5-trimethyl-1H-pyrazol-4-yl)-3,4-dihydropyrazino[1,2-a]indol-1(2H)-one] | 9.24 | 0.28
4 | COCCn1c(C(=O)O)cc2cc(OC)cc(N3C[C@@H](C)n4c(c(CCCOc5cc(C)c(Cl)c(C)c5)c5ccc(Cl)c(-c6c(C)nn(C)c6C)c54)C3=O)c21 [Example 665, (R)-7-(7-chloro-10-(3-(4-chloro-3,5-dimethylphenoxy)propyl)-4-methyl-1-oxo-6-(1,3,5-trimethyl-1H-pyrazol-4-yl)-3,4-dihydropyrazino[1,2-a]indol-2(1H)-yl)-5-methoxy-1-(2-methoxyethyl)-1H-indole-2-carboxylic acid] | > 9.70 | 0.28
5 | COc1ccc(N2C[C@@H](C)n3c(c(CCCOc4cc(C)c(Cl)c(C)c4)c4ccc(Cl)c(-c5c(C)nn(C)c5C)c43)C2=O)c2c1cc(C(=O)O)n2Cc1cc(C)ccn1 [Example 582, (R)-7-(7-chloro-10-(3-(4-chloro-3,5-dimethylphenoxy)propyl)-4-methyl-1-oxo-6-(1,3,5-trimethyl-1H-pyrazol-4-yl)-3,4-dihydropyrazino[1,2-a]indol-2(1H)-yl)-4-methoxy-1-((4-methylpyridin-2-yl)methyl)-1H-indole-2-carboxylic acid] | 9.55 | 0.22
6 | COCCCn1c(C(=O)O)cc2cc(C)cc(N3C[C@@H](C)n4c(c(CCCOc5cc(C)c(Cl)c(C)c5)c5ccc(Cl)c(-c6c(C)nn(C)c6C)c54)C3=O)c21 [Example 686, (R)-7-(7-chloro-10-(3-(4-chloro-3,5-dimethylphenoxy)propyl)-4-methyl-1-oxo-6-(1,3,5-trimethyl-1H-pyrazol-4-yl)-3,4-dihydropyrazino[1,2-a]indol-2(1H)-yl)-1-(3-methoxypropyl)-5-methyl-1H-indole-2-carboxylic acid] | > 9.70 | 0.52
7 | Cc1cc(OCCCc2c3n(c4c(-c5c(C)nn(C)c5C)c(Cl)ccc24)[C@H](C)CN(c2cn(CCN(C)C)c4ccc(C(=O)O)cc24)C3=O)cc(C)c1Cl [Example 510, (R)-3-(7-Chloro-10-(3-(4-chloro-3,5-dimethylphenoxy)propyl)-4-methyl-1-oxo-6-(1,3,5-trimethyl-1H-pyrazol-4-yl)-3,4-dihydropyrazino[1,2-a]indol-2(1H)-yl)-1-(2-(dimethylamino)ethyl)-1H-indole-5-carboxylic acid] | > 9.70 | 0.24
8 | COCCn1cc(N2C[C@@H](C)n3c(c(CCCOc4cc(C)c(Cl)c(C)c4)c4ccc(Cl)c(-c5c(C)nn(C)c5C)c43)C2=O)c2cc(-c3ncn(CC4CCOCC4)n3)ccc21 [Example 624, (R)-7-Chloro-10-(3-(4-chloro-3,5-dimethylphenoxy)propyl)-2-(1-(2-methoxyethyl)-5-(1-((tetrahydro-2H-pyran-4-yl)methyl)-1H-1,2,4-triazol-3-yl)-1H-indol-3-yl)-4-methyl-6-(1,3,5-trimethyl-1H-pyrazol-4-yl)-3,4-dihydropyrazino[1,2-a]indol-1(2H)-one] | 8.02 | 0.43
9 | Cc1ccnc(Cn2c(C(=O)O)cc3cc(C)cc(N4C[C@@H](C)n5c(c(CCCOc6cc(C)c(Cl)c(C)c6)c6ccc(Cl)c(-c7c(C)ncnc7C)c65)C4=O)c32)c1 [Example 577, (R)-7-(7-chloro-10-(3-(4-chloro-3,5-dimethylphenoxy)propyl)-6-(4,6-dimethylpyrimidin-5-yl)-4-methyl-1-oxo-3,4-dihydropyrazino[1,2-a]indol-2(1H)-yl)-5-methyl-1-((4-methylpyridin-2-yl)methyl)-1H-indole-2-carboxylic acid] | > 9.70 | 0.23
10 | C=Cc1ccnc(Cn2c(C(=O)O)cc3cc(C)cc(N4C[C@@H](C)n5c(c(CCCOc6cc(C)c(Cl)c(C)c6)c6ccc(Cl)c(-c7c(C)nn(C)c7C)c65)C4=O)c32)c1 [Example 514, (R)-7-(7-chloro-10-(3-(4-chloro-3,5-dimethylphenoxy)propyl)-4-methyl-1-oxo-6-(1,3,5-trimethyl-1H-pyrazol-4-yl)-3,4-dihydropyrazino[1,2-a]indol-2(1H)-yl)-5-methyl-1-((4-vinylpyridin-2-yl)methyl)-1H-indole-2-carboxylic acid] | > 9.70 | < 0.2
11 | Cc1cc(OCCCc2c3n(c4c(-c5c(C)nn(C)c5C)c(Cl)ccc24)[C@H](C)CN(c2cn(C)c4ccc(-c5ncn(-c6ncccn6)n5)cc24)C3=O)cc(C)c1Cl [Example 646, (R)-7-Chloro-10-(3-(4-chloro-3,5-dimethylphenoxy)propyl)-4-methyl-2-(1-methyl-5-(1-(pyrimidin-2-yl)-1H-1,2,4-triazol-3-yl)-1H-indol-3-yl)-6-(1,3,5-trimethyl-1H-pyrazol-4-yl)-3,4-dihydropyrazino[1,2-a]indol-1(2H)-one] | 9.52 | 0.24
12 | Cc1cccc(Cn2c(C(=O)O)cc3cc(OCCN(C)C)cc(N4C[C@@H](C)n5c(c(CCCOc6cc(C)c(Cl)c(C)c6)c6ccc(Cl)c(-c7c(C)ncnc7C)c65)C4=O)c32)n1 [Example 566, (R)-7-(7-chloro-10-(3-(4-chloro-3,5-dimethylphenoxy)propyl)-6-(4,6-dimethylpyrimidin-5-yl)-4-methyl-1-oxo-3,4-dihydropyrazino[1,2-a]indol-2(1H)-yl)-5-(2-(dimethylamino)ethoxy)-1-((6-methylpyridin-2-yl)methyl)-1H-indole-2-carboxylic acid] | > 9.70 | 0.41
13 | COCCn1c(C(=O)O)cc2cc(OC)cc(N3C[C@@H](C)n4c(c(CCCOc5cc(C)c(Cl)c(C)c5)c5ccc(Cl)c(-c6c(C)ncnc6C)c54)C3=O)c21 [Example 660, (R)-7-(7-chloro-10-(3-(4-chloro-3,5-dimethylphenoxy)propyl)-6-(4,6-dimethylpyrimidin-5-yl)-4-methyl-1-oxo-3,4-dihydropyrazino[1,2-a]indol-2(1H)-yl)-5-methoxy-1-(2-methoxyethyl)-1H-indole-2-carboxylic acid] | > 9.70 | 0.33
14 | Cc1cc(OCCCc2c3n(c4c(-c5c(C)nn(C)c5C)c(Cl)ccc24)[C@H](C)CN(c2cc(C(=O)O)cc4cc(C(=O)O)n(C)c24)C3=O)cc(C)c1Cl [Example 697, (R)-7-(7-chloro-10-(3-(4-chloro-3,5-dimethylphenoxy)propyl)-4-methyl-1-oxo-6-(1,3,5-trimethyl-1H-pyrazol-4-yl)-3,4-dihydropyrazino[1,2-a]indol-2(1H)-yl)-1-methyl-1H-indole-2,5-dicarboxylic acid] | > 9.70 | 2
15 | Cc1cc(OCCCc2c3n(c4c(-c5c(C)nn(C)c5C)c(Cl)ccc24)[C@H](C)CN(c2cc(C(=O)N4CCN(C)CC4)cc4cc(C(=O)O)n(C)c24)C3=O)cc(C)c1Cl [Example 626, (R)-7-(7-chloro-10-(3-(4-chloro-3,5-dimethylphenoxy)propyl)-4-methyl-1-oxo-6-(1,3,5-trimethyl-1H-pyrazol-4-yl)-3,4-dihydropyrazino[1,2-a]indol-2(1H)-yl)-1-methyl-5-(4-methylpiperazine-1-carbonyl)-1H-indole-2-carboxylic acid] | > 9.70 | 4.4
16 | COCCn1cc(N2C[C@@H](C)n3c(c(CCCOc4cc(C)c(Cl)c(C)c4)c4ccc(Cl)c(-c5c(C)nn(C)c5C)c43)C2=O)c2cc(-c3ncn(CCN4CCOCC4)n3)ccc21 [Example 615, (R)-7-Chloro-10-(3-(4-chloro-3,5-dimethylphenoxy)propyl)-2-(1-(2-methoxyethyl)-5-(1-(2-morpholinoethyl)-1H-1,2,4-triazol-3-yl)-1H-indol-3-yl)-4-methyl-6-(1,3,5-trimethyl-1H-pyrazol-4-yl)-3,4-dihydropyrazino[1,2-a]indol-1(2H)-one] | 8.02 | 0.37
